Assay results reported in patent US7226911B2, “Hair keratin-associated proteins” (Keio University, priority 2001, dated 2007).

Assays:
[1] = system: hair cycle of mouse body hair; test: effect of the functional peptide to the hair cycle of mouse body hair; assay type: in vivo; details: C3H/He mouse, applied to skin, 1% peptide
Text: For the application of KAPs as hair growth agent, there is a possible problem for permeability to tissues in an intact size. Therefore, from the point of view of being a hair constituent element, the minimum repeat unit on KAP sequences was searched and designing of peptides was attempted with the crosslinking within the tissues as a goal. After preparing alignment from the primary sequence of amino acid obtained in Example 7, repeat motifs are searched, and 2 functional peptides, namely mouse high sulfur type KAPs: N′-SCCXPSCCXP-C′ (X: Q, V, R, I) [Seq. ID No. 2031, and mouse high G/Y type KAPs: N′-YGGXGYGSGY-C′ (X: Y, L, F)[Seq. ID No. 204] were designed. By using these functional peptides, the action to hair formation and hair-matrix cells was evaluated. […] Peptide solvent (Plasebo) was used as a negative control, and […] MINOXIDIL was used as a positive control. […] The effect was significant compared not only with peptide solvent as a negative control (FIG. 30), but also with MINOXIDIL of the same concentration, being a positive control (FIG. 31).

mouse hair-matrix cells = test: action on isolated mouse hair-matrix cells (energy metabolism activity in the mitochondria; change of form); assay type: cell-based; details: during peptide treatment

For “N′-YGGXGYGSGY-C′ (X: Y, L, F) [high G/Y type peptide]”, the “effect to the hair cycle of mouse body hair (duration until hair coat / formation of body hair)” value [1] was “shortening effect of the duration until hair coat was observed” and the “change of form of hair-matrix cells” value (mouse hair-matrix cells) was “a change of form of hair-matrix cells associated with the differentiation was observed”.
